Data on 48 compounds can be found in patent US9840512B2, “Antidiabetic bicyclic compounds” (Merck Sharp & Dohme Corp., priority 2013, dated 2017).

Each structure is given as a SMILES string.

The first assay deals with T1, human GPR40 (Homo sapiens, UniProt O14842). As to the kind of experiment: Inositol Phosphate Turnover (IP1) Assay 2. In kind it is cell-based. Further details: expressed in transfected cells. The settings on record: HEK cells stably expressing human GPR40, Table 2, read-out: Human IP1. Put shortly: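 HEK cells stably expressing human GPR40 (aequorin reporter background) seeded and grown 16 h at 37 °C, then treated with compound in IP-One stimulation buffer for 60 min at 37 °C. IP1 accumulation detected by HTRF/FRET after 60 min with detection reagents in the dark.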
T1 sequence (O14842 whole entry): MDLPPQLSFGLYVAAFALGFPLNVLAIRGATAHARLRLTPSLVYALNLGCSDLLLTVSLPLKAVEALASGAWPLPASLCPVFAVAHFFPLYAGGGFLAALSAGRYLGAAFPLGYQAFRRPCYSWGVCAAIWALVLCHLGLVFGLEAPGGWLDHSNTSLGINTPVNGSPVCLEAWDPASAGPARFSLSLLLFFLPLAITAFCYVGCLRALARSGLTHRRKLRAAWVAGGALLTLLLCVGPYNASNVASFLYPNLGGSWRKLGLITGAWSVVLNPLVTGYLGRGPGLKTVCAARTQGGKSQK
Regarding `COc1ccc(F)c(-c2ccc(C3CCc4ccc(C(CC(=O)O)C5CC5)cc4O3)cc2C2=CCCC2(C)C)c1` (single isomer, unassigned) [Example 101d], the EC50 worked out at 90 nM.

For the compound `O=C(O)C[C@H](c1ccc2c(c1)OC(c1ccc(-c3ccccc3)cc1)CC2)C1CC1` (mixture of isomers) [Example 80], the EC50 was 130 nM.

Regarding `COc1ccc(F)c(-c2ccc(C3CCc4ccc([C@@H](CC(=O)O)C5CC5)cc4O3)cn2)c1` (single isomer, unassigned) [Example 122b], the EC50 amounted to 244 nM.

As to `COc1ccc(F)c(-c2ccc(C3CCc4ccc([C@@H](CC(=O)O)C5CC5)cc4O3)cc2C(OC)C(C)(C)C)c1` (single isomer, unassigned) [Example 125a], the EC50 came out at 7.3 nM.

Turning to `COc1ccc(F)c(-c2ccc(C3CCc4ccc(C(CC(=O)O)C5CC5)cc4O3)cc2C2=CCCC2(C)C)c1` (single isomer, unassigned) [Example 101a], the EC50 was determined as 662 nM.

With `C[C@H](C(=O)O)[C@H](c1ccc2c(c1)OC(c1ccc(-c3cc(O)ccc3F)cc1)CC2)C1CC1` (single isomer, unassigned) [Example 67], the EC50 was determined as 21 nM.

For `CSc1cccc(-c2ccc(C3CCc4ccc([C@@H](CC(=O)O)C5CC5)cc4O3)cc2)c1` (stereo partly drawn) [Example 81], the EC50 came to 165 nM.

In the case of `COc1ccc(F)c(-c2ccc(C3CCc4ccc([C@@H](CC(=O)O)C5CC5)cc4O3)cc2)c1` (single isomer, unassigned) [Example 62], the EC50 stood at 18 nM.

`COc1cc(-c2ccc(C3CCc4ccc([C@H](C5CC5)[C@H](C)C(=O)O)cc4O3)c(F)c2)c(F)cn1` (single isomer, unassigned) [Example 109b]: the EC50 was 1.2 nM.

For the compound `COc1ccc(F)c(-c2ccc(C3CCc4ccc([C@H](C5CC5)[C@H](C)C(=O)O)cc4O3)nc2C2=CCCC2(C)C)c1` (mixture of isomers) [Example 114], the EC50 stood at 8.8 nM.

`COc1ccc(F)c(-c2ccc(C3CCc4ccc([C@H](C5CC5)[C@H](C)C(=O)O)nc4O3)cc2)c1` (mixture of isomers) [Example 137]: the EC50 is 454 nM.

For the compound `COc1ccc(F)c(-c2ccc(C3CCc4ccc([C@H](C5CC5)[C@H](C)C(=O)O)cc4O3)nc2C(OC)C(C)(C)C)c1` (single isomer, unassigned) [Example 135a], the EC50 came out at 0.8 nM.

In the case of `COc1ccc(F)c(-c2ccc(C3CCc4ccc([C@@H](CC(=O)O)C5CC5)cc4O3)nc2)c1` (mixture of isomers) [Example 104], the EC50 was found to be 16 nM.

Regarding `COc1ccc(F)c(-c2ccc(C3CCc4ccc([C@@H](CC(=O)O)C5CC5)cc4O3)cc2OC(F)(F)F)c1` (mixture of isomers) [Example 99], the EC50 is 29 nM.

For `COc1cc(-c2ccc(C3CCc4ccc([C@H](C5CC5)[C@H](C)C(=O)O)cc4O3)nc2C)ccn1` (single isomer, unassigned) [Example 119b], the EC50 worked out at 7.8 nM.

In the case of `COc1cc(-c2ccc(C3CCc4ccc([C@H](C5CC5)[C@H](C)C(=O)O)cc4O3)cc2)c(F)cn1` (single isomer, unassigned) [Example 117b], the EC50 came to 0.17 nM.

Take `COc1ccc(F)c(-c2ccc(C3CCc4ccc([C@@H](CC(=O)O)C5CC5)cc4O3)cc2[C@H]2CCCC2(C)C)c1` (mixture of isomers) [Example 102]: the EC50 was found to be 66 nM.

On to `COc1ccc(F)c(-c2ccc(C3CCc4ccc(C(C)C(C)C(=O)O)cc4O3)cc2)c1` (single isomer, unassigned) [Example 147c], for which the EC50 was determined as 138 nM.

With `COc1cc(-c2ccc(C3CCc4ccc([C@H](C5CC5)[C@H](C)C(=O)O)cc4O3)cc2C(OC)C2CC2)c(F)cn1` (mixture of isomers) [Example 130], the EC50 was found to be 0.9 nM.

On to `COc1cncc(-c2ccc(C3CCc4ccc([C@@H](CC(=O)O)C5CC5)cc4O3)c(F)c2)c1` (mixture of isomers) [Example 86], for which the EC50 was 363 nM.

The assay is the same for the next values; noted with them: HEK cells stably expressing human GPR40, Table 3, read-out: Human IP1 activity.
Take `COc1ccc(F)c(-c2ccc(C3COc4ccc([C@H](C5CC5)[C@H](C)C(=O)O)c(F)c4O3)nc2)c1` (mixture of isomers) [Example 165]: the EC50 was 2.6 nM.

Turning to `COc1ccc(F)c(-c2ccc(C3COc4ccc([C@@H](CC(=O)O)C5CC5)cc4O3)cc2)c1` (single isomer, unassigned) [Example 167], the EC50 stood at 31 nM.

As for `COc1ccc(F)c(-c2ccc(C3COc4ccc([C@H](C5CC5)[C@H](C)C(=O)O)cc4O3)cc2OC(F)(F)F)c1` (single isomer, unassigned) [Example 171], the EC50 was 2.6 nM.

For the compound `C[C@H](C(=O)O)[C@H](c1ccc2c(c1)OC(C1CN(Cc3cc(C(F)(F)F)ccc3C(F)(F)F)C1)CO2)C1CC1` (single isomer, unassigned) [Example 187], the EC50 turned out to be 1280 nM.

Take `COc1ccc(F)c(-c2ccc(C3COc4ccc([C@H](C5CC5)[C@H](C)C(=O)O)cc4O3)nc2)c1` (single isomer, unassigned) [Example 161]: the EC50 is 2.2 nM.

Another assay deals with T1, human GPR40. The experiment in a line: FLIPR assay (agonist-induced calcium mobilization). The conditions noted are these: CHONFAT, read-out: Human FLIPR EC50, nM or % activation (% activation values). (Calcium assays in cells follow changes in intracellular calcium, usually with a dye or a luminescent sensor.)
Procedure: Human and mouse GPR40 stable cell-lines were generated in CHO cells stably expressing NFAT BLA (Beta-lactamase). […] The expression plasmids were transfected using lipofectamine (Life Technologies) following manufacturer's instructions. Stable cell-lines were generated following drug selection.
FLIPR (Fluorimetric Imaging Plate Reader, Molecular Devices) assays were performed to measure agonist-induced calcium mobilization of the stable clones. For the FLIPR assay, one day before assay, GPR40/CHO NFAT BLA cells were seeded into black-wall-clear-bottom 384-well plates (Costar) at 1.4×10e4 cells/20 μL medium/well. The cells were incubated with 20 μl/well of the assay buffer (HBSS, 0.1% BSA, 20 mM HEPES, 2.5 mM probenecid, pH 7.4) containing 8 μM fluo-4, AM, 0.08% pluronic acid at room temperature for 100 minutes. Fluorescence output was measured using FLIPR. Compounds were dissolved in DMSO and diluted to desired concentrations with assay buffer.
For `COc1cccc(C(CC(=O)O)c2ccc3c(c2)CCC(c2cccc(-c4c(C)cccc4C)c2)O3)c1` (stereo not drawn) [Example 46], the activation at 10 µM worked out at 41%.

Take `COc1ccc(C(CC(=O)O)c2ccc3c(c2)CCC(c2cccc(-c4c(C)cccc4C)c2)O3)cc1` (stereo not drawn) [Example 47]: the activation at 10 µM was found to be 61%.

Turning to `Cc1cccc(C)c1-c1cccc(C2CC(=O)c3cc(CCC(=O)O)ccc3O2)c1` (racemic) [Example 7, 3-(2-(2′,6′-dimethyl-[1,1′-biphenyl]-3-yl)-4-oxochroman-6-yl)propanoic acid], the activation at 10 µM is 70%.

`O=C(O)CCc1ccc2c(c1)CCC(c1ccccc1)O2` (racemic) [Example 2]: the activation at 10 µM worked out at 79%.

As for `COc1ccccc1C(CC(=O)O)c1ccc2c(c1)CCC(c1cccc(-c3c(C)cccc3C)c1)O2` (stereo not drawn) [Example 45], the activation at 10 µM turned out to be 12.5%.

Still in this assay, the particulars now being: Human FLIPR EC50, nM or % activation (EC50 values), GPR40/CHO NFAT BLA cells.
Consider `Cc1cccc(C)c1-c1cccc(C2CCc3cc(-c4cc(=O)[nH][s+]4[O-])ccc3O2)c1` [Example 9, (1R)-5-(2-(2′,6′-dimethyl-[1,1′-biphenyl]-3-yl)chroman-6-yl)isothiazol-3(2H)-one 1-oxide], for which the EC50 stood at 1920 nM.

Turning to `CC#C[C@@H](CC(=O)O)c1ccc2c(c1)CCC(c1cccc(-c3c(C)noc3C)c1)O2` (single isomer, unassigned) [Example 39], the EC50 stood at 113 nM.

Consider `CC#CC(CC(=O)O)c1ccc2c(c1)OC(c1ccc(-c3c(C)cccc3C)cc1)CC2` (single isomer, unassigned) [Example 53], for which the EC50 worked out at 2140 nM.

For `CC#C[C@@H](CC(=O)O)c1ccc2c(c1)CCC(c1cc(-c3cc(OC)ccc3F)ccc1F)O2` (mixture of isomers) [Example 30], the EC50 stood at 128 nM.

Take `Cc1cccc(C)c1-c1cccc(C2CCc3nc(CCC(=O)O)ccc3O2)c1` (stereo not drawn) [Example 10, 3-(2-(2′,6′-dimethyl-[1,1′-biphenyl]-3-yl)-3,4-dihydro-2H-pyrano[3,2-b]pyridin-6-yl)propanoic acid]: the EC50 came to 1310 nM.

In the case of `CC#C[C@@H](CC(=O)O)c1ccc2c(c1)CCC(c1cc(-c3cccnc3C(F)(F)F)ccc1F)O2` (single isomer, unassigned) [Example 36], the EC50 was 178 nM.

Regarding `CC#CC(CC(=O)O)c1ccc2c(c1)CCC(c1nc(-c3cccnc3C(F)(F)F)ccc1F)O2` (mixture of isomers) [Example 20], the EC50 is 172 nM.

In the case of `Cc1cccc(C)c1-c1cccc(C2CCc3cc(C(CC(=O)O)C4CC4)ccc3O2)c1` (mixture of isomers) [Example 43], the EC50 was 2040 nM.

As for `Cc1ccccc1-c1ccc(C2CCc3cc4c(cc3O2)OC[C@H]4CC(=O)O)c(F)c1` (stereo partly drawn) [Example 57], the EC50 was determined as 1050 nM.

With `CC#CC(CC(=O)O)c1ccc2c(c1)OC(c1ccc(-c3c(C)cccc3C)cc1)CC2` (single isomer, unassigned) [Example 54], the EC50 is 1090 nM.

In the case of `CC#C[C@@H](CC(=O)O)c1ccc2c(c1)CCC(c1cccc(-c3c(C)noc3C)c1)O2` (single isomer, unassigned) [Example 40], the EC50 was 255 nM.

Consider `CC#CC(CC(=O)O)c1ccc2c(c1)CCC(c1cccc(-c3cccnc3C)c1)O2` (mixture of isomers) [Example 26], for which the EC50 amounted to 244 nM.

Turning to `Cc1cccc(C)c1-c1cccc(C2CC(F)(F)c3cc(CCC(=O)O)ccc3O2)c1` (racemic) [Example 8, 3-(2-(2′,6′-dimethyl-[1,1′-biphenyl]-3-yl)-4,4-difluorochroman-6-yl)propanoic acid], the EC50 came to 349 nM.

As to `Cc1ccccc1-c1cccc(C2CCc3cc4c(cc3O2)OC[C@H]4CC(=O)O)c1F` (mixture of isomers) [Example 58], the EC50 was 1040 nM.

Consider `Cc1cccc(C)c1-c1cccc(C2CCc3cc4c(cc3O2)OC[C@H]4CC(=O)O)c1` (stereo partly drawn) [Example 55, 2-((3S)-7-(2′,6′-dimethyl-[1,1′-biphenyl]-3-yl)-3,5,6,7-tetrahydro-2H-furo[3,2-g]chromen-3-yl)acetic acid], for which the EC50 turned out to be 247 nM.

For `Cc1cccc(C)c1-c1cccc(C2CCc3cc(C(CC(=O)O)c4ccccn4)ccc3O2)c1` (mixture of isomers) [Example 34], the EC50 is 734 nM.

As to `CC#CC(CC(=O)O)c1ccc2c(c1)CCC(c1ccc(C(F)(F)F)c(Cl)c1)O2` (mixture of isomers) [Example 18], the EC50 stood at 1540 nM.

For `CC#C[C@@H](CC(=O)O)c1ccc2c(c1)CCC(c1cc(-c3ccc(C(F)(F)F)cc3)ccc1F)O2` (mixture of isomers) [Example 29], the EC50 turned out to be 162 nM.
